Data reported in paper PMC11876601 (Molecular Systems Biology, 2025).
Like-named read-outs stand apart in the source and are kept apart here.

Tests used:
Experiment in all cases: cells
AsPC-1 = tested on: AsPC-1; parameters: Viability of PDAC cell lines, ATPlite luminescence, 11-dose single-agent curve fit; conditions: Homo sapiens, ASPC1, 72 h, read-out: EC50 [nM]
Description: (§1) Afterward, small amounts were transferred to 384-well intermediate plates (Greiner Bio-One GmbH, Germany). […] For drug combination screening, 1000 to 5000 cells were seeded into 384-well plates (CulturPlate™, Perkin Elmer, MA, USA) using a Multidrop™ Combi Reagent Dispenser (Thermo Scientific, MA, USA) in 50 µl medium per well 24 h prior to drug treatment (seeding densities see Appendix Table S1). […] The final DMSO concentration in each well was 0.2%. […] Eight wells per plate without library drug served as negative controls, and sixteen wells per plate containing 5 µM Staurosporine served as positive controls. […] Next, we analyzed the drug sensitivity of immortalized duct cell line HPDE to detect effects unrelated to pancreatic cancer.

BxPC-3 [1] = tested on: BxPC-3; parameters: Viability of PDAC cell lines, ATPlite luminescence, 11-dose single-agent curve fit; conditions: Homo sapiens, BXPC-3, 72 h, read-out: EC50 [nM]
Description: as §1

Capan-1 = tested on: Capan-1; parameters: Viability of PDAC cell lines, ATPlite luminescence, 11-dose single-agent curve fit; conditions: Homo sapiens, CAPAN-1, 72 h, read-out: EC50 [nM]
Description: as §1

Colo-357 = tested on: Colo-357; parameters: Viability of PDAC cell lines, ATPlite luminescence, 11-dose single-agent curve fit; conditions: Homo sapiens, COLO357, 72 h, read-out: EC50 [nM]
Description: as §1

Dan-G [2] = tested on: Dan-G; parameters: Viability of PDAC cell lines, ATPlite luminescence, 11-dose single-agent curve fit; conditions: 72 h, read-out: EC50 [nM]
Description: as §1

FAMPAC [3] = tested on: FAMPAC; parameters: Viability of PDAC cell lines, ATPlite luminescence, 11-dose single-agent curve fit; conditions: 72 h, read-out: EC50 [nM]
Description: as §1

HPDE = tested on: HPDE; parameters: Viability of PDAC cell lines, ATPlite luminescence, 11-dose single-agent curve fit; conditions: HPDE, 72 h, read-out: EC50 [nM]
Description: as §1

HuP-T4 = tested on: HuP-T4; parameters: Viability of PDAC cell lines, ATPlite luminescence, 11-dose single-agent curve fit; conditions: Homo sapiens, HuP-T4, 72 h, read-out: EC50 [nM]
Description: as §1

MiaPaCa-2 [4] = tested on: MiaPaCa-2; parameters: Viability of PDAC cell lines, ATPlite luminescence, 11-dose single-agent curve fit; conditions: Homo sapiens, MIA PaCa-2, 72 h, read-out: EC50 [nM]
Description: as §1

PANC-1 = tested on: PANC-1; parameters: Viability of PDAC cell lines, ATPlite luminescence, 11-dose single-agent curve fit; conditions: Homo sapiens, PANC-1, 72 h, read-out: EC50 [nM]
Description: as §1

PSN-1 [5] = tested on: PSN-1; parameters: Viability of PDAC cell lines, ATPlite luminescence, 11-dose single-agent curve fit; conditions: Homo sapiens, PSN1, 72 h, read-out: EC50 [nM]
Description: as §1

PaTu-8988-T = tested on: PaTu-8988-T; parameters: Viability of PDAC cell lines, ATPlite luminescence, 11-dose single-agent curve fit; conditions: Homo sapiens, PaTu 8988t, 72 h, read-out: EC50 [nM]
Description: as §1

Suit2-07 [6] = tested on: Suit2-07; parameters: Viability of PDAC cell lines, ATPlite luminescence, 11-dose single-agent curve fit; conditions: 72 h, read-out: EC50 [nM]
Description: as §1

BxPC-3 [7] = tested on: BxPC-3; parameters: ATPlite luminescence viability of PDAC cell lines, 11-dose single-agent curves, 4-parameter fit; conditions: Homo sapiens, BXPC-3, 72 h, read-out: EC50 [nM]
Description: as §1

FAMPAC [8] = tested on: FAMPAC; parameters: ATPlite luminescence viability of PDAC cell lines, 11-dose single-agent curves, 4-parameter fit; conditions: 72 h, read-out: EC50 [nM]
Description: as §1

MiaPaCa-2 [9] = tested on: MiaPaCa-2; parameters: ATPlite luminescence viability of PDAC cell lines, 11-dose single-agent curves, 4-parameter fit; conditions: Homo sapiens, MIA PaCa-2, 72 h, read-out: EC50 [nM]
Description: as §1

PSN-1 [10] = tested on: PSN-1; parameters: ATPlite luminescence viability of PDAC cell lines, 11-dose single-agent curves, 4-parameter fit; conditions: Homo sapiens, PSN1, 72 h, read-out: EC50 [nM]
Description: as §1

Suit2-07 [11] = tested on: Suit2-07; parameters: ATPlite luminescence viability of PDAC cell lines, 11-dose single-agent curves, 4-parameter fit; conditions: 72 h, read-out: EC50 [nM]
Description: as §1

Dan-G [12] = tested on: Dan-G; parameters: ATPlite luminescence viability of PDAC cell lines, 11-dose single-agent curves, 4-parameter fit; conditions: 72 h, read-out: EC50 [nM]
Description: as §1

Row | SMILES | EC50 (AsPC-1) | EC50 (BxPC-3 [1]) | EC50 (Colo-357) | EC50 (MiaPaCa-2 [4]) | EC50 (PANC-1) | EC50 (BxPC-3 [7]) | EC50 (MiaPaCa-2 [9]) | EC50 (Capan-1) | EC50 (Dan-G [2]) | EC50 (FAMPAC [3]) | EC50 (HPDE) | EC50 (HuP-T4) | EC50 (PSN-1 [5]) | EC50 (PaTu-8988-T) | EC50 (Suit2-07 [6]) | EC50 (FAMPAC [8]) | EC50 (PSN-1 [10]) | EC50 (Suit2-07 [11]) | EC50 (Dan-G [12])
1 | COc1cc2nccc(Oc3ccc(NC(=O)NC4CC4)c(Cl)c3)c2cc1C(N)=O [Lenvatinib] | 394 nM | > 10000 nM | 4390 nM | 4890 nM | 655 nM |  |  | 7850 nM | 39.1 nM | 164 nM | > 10000 nM | 0.14 nM | 7480 nM | > 10000 nM | 0.2 nM |  |  |  | 
2 | COCCNc1cc(NC(=O)N2CCCc3cc(CN4CCN(C)CC4=O)c(C=O)nc32)ncc1C#N [Roblitinib] | 0.56 nM | 5220 nM | > 10000 nM | 207 nM | 1060 nM |  |  | 25.8 nM | 150 nM | 7290 nM | 0.09 nM | 60.7 nM | 4040 nM | > 10000 nM | 7.75 nM |  |  |  | 
3 | CNC(=O)c1ccc(Nc2ncc(C(F)(F)F)c(NCc3nccnc3N(C)S(C)(=O)=O)n2)cc1 [Defactinib] | 3350 nM |  | 3820 nM |  | 142 nM | > 10000 nM | 4660 nM | 3400 nM | 7590 nM |  | 3690 nM | 441 nM |  | 9750 nM | > 10000 nM | > 10000 nM | 4590 nM |  | 
4 | O=C(Nc1nc2cccc(-c3ccc(CN4CCS(=O)(=O)CC4)cc3)n2n1)C1CC1 [Filgotinib] | 305 nM | 9420 nM | 3490 nM |  | 43.9 nM |  | > 10000 nM | 5940 nM | 6150 nM |  | 1990 nM | 172 nM |  | > 10000 nM | 2150 nM | 8160 nM | 7590 nM |  | 
5 | Cn1cc(-c2cc3c(N4CCN(c5ncc([C@@](C)(N)c6ccc(F)cc6)cn5)CC4)ncnn3c2)cn1 [Avapritinib] | 1990 nM | 3240 nM | 420 nM | 1710 nM | 2600 nM |  |  | 3830 nM | 3820 nM | 2070 nM | 976 nM | 701 nM | 1010 nM | 1570 nM | 3550 nM |  |  |  | 
6 | Cc1cn(-c2cc(NC(=O)c3ccc(C)c(Nc4nccc(-c5cccnc5)n4)c3)cc(C(F)(F)F)c2)cn1 [Nilotinib] | > 10000 nM | 3610 nM | > 10000 nM | 3700 nM | 3790 nM |  |  | > 10000 nM | > 10000 nM | > 10000 nM | > 10000 nM | 22.2 nM | > 10000 nM | 5190 nM | 186 nM |  |  |  | 
7 | CN1CC[C@@H](NC(=O)Nc2ccc(C#N)cc2)C[C@@H]1c1nc2ccccc2[nH]1 [Glasdegib] | 28.4 nM | 164 nM | 352 nM | > 10000 nM | 2580 nM |  |  |  | 176 nM | 1230 nM | 110 nM | 208 nM | 846 nM | 0.5 nM | 523 nM |  |  |  | 
8 | CCN1C(=O)N(c2c(F)c(OC)cc(OC)c2F)Cc2cnc3[nH]c(CN4CCOCC4)cc3c21 [Pemigatinib] | 3480 nM |  | 2990 nM |  | 442 nM | 1370 nM | > 10000 nM | 2030 nM | 2970 nM |  | 3380 nM | 3.44 nM | 2710 nM | 3280 nM |  | 3320 nM |  | 3040 nM | 
9 | Cc1cc2c(F)c(Oc3ncnn4cc(OC[C@@H](C)O)c(C)c34)ccc2[nH]1 [Brivanib] | 156 nM | 3.14 nM | 8830 nM | 7100 nM | > 10000 nM |  |  | > 10000 nM | > 10000 nM |  | > 10000 nM | 5470 nM | > 10000 nM | 9580 nM | > 10000 nM |  |  |  | 
10 | [2H]C([2H])([2H])NC(=O)c1nnc(NC(=O)C2CC2)cc1Nc1cccc(-c2ncn(C)n2)c1OC [BMS986165] | 4870 nM | > 10000 nM | 9560 nM | 7220 nM | 2070 nM |  |  |  | 3350 nM | > 10000 nM | 2330 nM | 4610 nM | 7570 nM | > 10000 nM | > 10000 nM |  |  |  | 
11 | C[C@H](Nc1ncnc2nc[nH]c12)c1cc2cccc(Cl)c2c(=O)n1-c1ccccc1 [Duvelisib] | > 10000 nM | 2870 nM | 3070 nM | 2130 nM | 1590 nM |  |  | 4650 nM |  | 4250 nM | 6900 nM | 109 nM | 883 nM | > 10000 nM | > 10000 nM |  |  |  | 5640 nM

Stronger by EC50 (Colo-357), values ahead:

Row | EC50 (AsPC-1) | EC50 (BxPC-3 [1]) | EC50 (Colo-357) | EC50 (MiaPaCa-2 [4]) | EC50 (PANC-1) | EC50 (BxPC-3 [7]) | EC50 (MiaPaCa-2 [9]) | SMILES | EC50 (Capan-1) | EC50 (Dan-G [2]) | EC50 (FAMPAC [3]) | EC50 (HPDE) | EC50 (HuP-T4) | EC50 (PSN-1 [5]) | EC50 (PaTu-8988-T) | EC50 (Suit2-07 [6]) | EC50 (FAMPAC [8]) | EC50 (PSN-1 [10]) | EC50 (Suit2-07 [11]) | EC50 (Dan-G [12])
12 | 145 nM | 1040 nM | 2.98 nM | 47 nM | 568 nM |  |  | Cc1[nH]c(/C=C2\C(=O)Nc3ccccc32)c(C)c1CCC(=O)O [Orantinib] | 17.6 nM | 487 nM | 0.01 nM | 61.9 nM | 2430 nM | 366 nM | 135 nM | 2.77 nM |  |  |  | 
13 | 596 nM | 0.01 nM | 5.08 nM | 2740 nM | 20.4 nM |  |  | CNC(=O)c1c(C)oc2cc(Oc3ncnc4cc(OC)c(OC)cc34)ccc12 [Fruquintinib] | 32.9 nM | 1.05 nM | 1660 nM | 552 nM | 653 nM | 5.57 nM | 1810 nM | 0.05 nM |  |  |  | 
14 | 32.7 nM | 792 nM | 131 nM | 1830 nM | 1420 nM |  |  | Cc1ccc(F)c(NC(=O)Nc2ccc(-c3cccc4[nH]nc(N)c34)cc2)c1 [Linifanib] | 47 nM | 27.9 nM | 3290 nM | 311 nM | 1100 nM | > 10000 nM |  | 864 nM |  |  |  | 
15 |  | 99.3 nM | 220 nM | 71.8 nM | 80.3 nM |  |  | CCc1cc2c(cc1N1CCC(N3CCOCC3)CC1)C(C)(C)c1[nH]c3cc(C#N)ccc3c1C2=O [Alectinib] |  | > 10000 nM | 9090 nM | 2130 nM | 680 nM | 0.05 nM | 28 nM | 2390 nM |  |  |  | 
16 | 1070 nM | 2910 nM | 31.5 nM | 4490 nM | > 10000 nM |  |  | C=CC(=O)N1CCC(CNc2ncnc(N)c2-c2ccc(Oc3ccccc3)cc2)CC1 [Evobrutinib] | > 10000 nM | 493 nM |  | 2.61 nM |  | 571 nM | 213 nM | 1.96 nM |  |  |  | 
